In patent publication US20050096327A1, “Novel norepinephrine reuptake inhibitors for the treatment of central nervous system disorders” (priority 2003, published 2005) one finds Ki data, which are given here for 32 molecules.

In experiment [1] the target is T1, human norepinephrine transporter (Homo sapiens, UniProt P23975).
T1 construct: host or cells: HEK-293
The experiment can be described thus: hNET receptor binding ([125I]-RTI-55, membranes of transfected HEK-293 cells). To be noted: 50 pM [125I]-RTI-55, 90 min room temperature; IC50 converted by Cheng-Prusoff. The method, then:
Cell pastes of HEK-293 cells transfected with the human norepinephrine transporter were supplied by the Pfizer Ann Arbor Protein Expression and Production group. Pellets were resuspended in 400 to 700 ml of Krebs-HEPES assay buffer (25 mM HEPES, 122 mM NaCl, 3 mM KCl, 1.2 mM MgSO4, 1.3 mM CaCl2, and 11 mM glucose, pH 7.4) with a Polytron homogenizer at setting 7 for 30 sec. Aliquots of membranes (5 mg/ml protein) were stored in liquid nitrogen until used.
The binding assay was set up in Beckman deep-well polypropylene plates with a total volume of 250 μl containing: drug (10^−5M to 10^−12M), cell membranes, and 50 pM [^125I]-RTI-55 (Perkin Elmer, NEX-272; specific activity 2200 Ci/mmol). The reaction was incubated by gentle agitation for 90 min at room temperature and was terminated by filtration through Whatman GF/C filter plates using a Brandel 96-well plate harvester. Scintillation fluid (100 μl) was added to each well, and bound [^125I]-RTI-55 was determined using a Wallac Trilux Beta Plate Counter. Test compounds were run in duplicate, and specific binding was defined as the difference between binding in the presence and absence of 10 μM desipramine.
Excel and GraphPad Prism software were used for data calculation and analysis. IC50 values were converted to Ki values using the Cheng-Prusoff equation. The Ki values for the hNET are reported below in Table 1.

Experiment [2] concerns the target T2, human serotonin transporter (Homo sapiens, UniProt P31645).
T2 construct: host or cells: HEK-293
The experiment can be described thus: hSERT receptor binding ([125I]-RTI-55, membranes of transfected HEK-293 cells). The note with it: 50 pM [125I]-RTI-55, 90 min room temperature; IC50 converted by Cheng-Prusoff. The method, then: Cell pastes of HEK-293 cells transfected with the human serotonin transporter were supplied by the Pfizer Ann Arbor Protein Expression and Production Group. Pellets were resuspended in 400 to 700 mL of Krebs-HEPES assay buffer (25 mM HEPES, 122 mM NaCl, 3 mM KCl, 1.2 mM MgSO4, 1.3 mM CaCl2, and 11 mM glucose, pH 7.4) with a Polytron homogenizer at Setting 7 for 30 seconds. Aliquots of membranes (˜2.5 mg/mL protein) were stored in liquid nitrogen until used.
Assays were set up in FlashPlates pre-coated with 0.1% PEI in a total volume of 250 μL containing: drug (10^−5M to 10^−12M), cell membranes, and 50 pM [^125I]-RTI-55 (Perkin Elmer, NEX-272; specific activity 2200 Ci/mmol). The reaction was incubated and gently agitated for 90 minutes at room temperature, and terminated by removal of assay volume. Plates were covered, and bound [^125I]-RTI-55 was determined using a Wallac Trilux Beta Plate Counter. Test compounds were run in duplicate, and specific binding was defined as the difference between binding in the presence and absence of 10 μM citalopram.
Excel and GraphPad Prism software were used for data calculation and analysis. IC50 values were converted to Ki values using the Cheng-Prusoff equation. The Ki values for the hSERT are reported below in Table 1.

As usually defined, the Ki is a measure of affinity in units of concentration, obtained from inhibition or displacement. Higher therefore signals lower affinity.

T1 sequence (P23975 whole entry): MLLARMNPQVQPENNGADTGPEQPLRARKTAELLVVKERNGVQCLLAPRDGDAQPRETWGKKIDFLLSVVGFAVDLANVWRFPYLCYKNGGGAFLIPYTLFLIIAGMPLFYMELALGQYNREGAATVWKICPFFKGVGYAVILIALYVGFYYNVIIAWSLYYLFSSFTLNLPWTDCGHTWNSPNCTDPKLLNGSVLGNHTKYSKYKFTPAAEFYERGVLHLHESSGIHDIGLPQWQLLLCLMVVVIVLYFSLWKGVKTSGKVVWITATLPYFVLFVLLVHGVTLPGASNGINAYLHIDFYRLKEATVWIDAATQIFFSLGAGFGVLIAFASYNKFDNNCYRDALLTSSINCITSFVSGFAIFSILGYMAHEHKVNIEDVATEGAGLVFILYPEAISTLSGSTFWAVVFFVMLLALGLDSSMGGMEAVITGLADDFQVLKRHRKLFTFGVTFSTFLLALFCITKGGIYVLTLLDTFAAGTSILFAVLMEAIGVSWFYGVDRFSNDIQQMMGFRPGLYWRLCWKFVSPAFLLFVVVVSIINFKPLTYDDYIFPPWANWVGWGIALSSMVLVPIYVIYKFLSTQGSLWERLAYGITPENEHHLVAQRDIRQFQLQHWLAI
T2 sequence (P31645 whole entry): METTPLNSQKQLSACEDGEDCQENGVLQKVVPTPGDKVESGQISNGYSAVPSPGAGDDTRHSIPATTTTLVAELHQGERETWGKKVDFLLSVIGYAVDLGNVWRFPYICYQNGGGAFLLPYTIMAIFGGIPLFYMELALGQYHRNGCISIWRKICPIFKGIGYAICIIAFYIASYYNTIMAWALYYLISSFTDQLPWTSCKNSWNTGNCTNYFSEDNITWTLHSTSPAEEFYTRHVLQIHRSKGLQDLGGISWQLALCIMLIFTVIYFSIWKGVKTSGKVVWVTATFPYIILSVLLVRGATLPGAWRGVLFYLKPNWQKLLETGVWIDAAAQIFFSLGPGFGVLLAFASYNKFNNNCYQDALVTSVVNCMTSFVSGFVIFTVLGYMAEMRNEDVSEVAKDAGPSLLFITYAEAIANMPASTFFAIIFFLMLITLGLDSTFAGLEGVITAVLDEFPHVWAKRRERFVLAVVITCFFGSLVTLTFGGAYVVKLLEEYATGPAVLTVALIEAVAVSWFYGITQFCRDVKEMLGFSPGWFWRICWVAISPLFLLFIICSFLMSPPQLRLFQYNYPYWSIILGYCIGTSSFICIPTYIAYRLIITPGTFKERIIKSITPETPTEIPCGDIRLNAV

In the case of `C[C@H]1CNCCN1c1nc(-c2ccc(F)cc2F)c2ccccc2n1` [Example 82, S-4-(2,4-Difluoro-phenyl)-2-(2-methyl-piperazin-1-yl)-quinazoline], the results for the Ki in experiment [1] and in experiment [2] were 19.4 nM and 64.1 nM, respectively.
For `CN1CCN(c2nc(-c3c(F)cccc3F)c3ccc(F)cc3n2)CC1` [Example 83, 4-(2,6-Difluoro-phenyl)-7-fluoro-2-(4-methyl-piperazin-1-yl)-quinazoline], in that order: 37.6 nM and 314 nM.
For `Fc1ccc2c(-c3c(F)cccc3F)nc(N[C@@H]3CCNC3)nc2c1` [Example 84, R-[4-(2,6-Difluoro-phenyl)-7-fluoro-quinazolin-2-yl]-pyrrolidin-3-yl-amine], in that order: 49.8 nM and 653 nM.
In the case of `C[C@H]1CNCCN1c1nc(-c2c(F)cccc2Cl)c2ccccc2n1` [Example 85, S-4-(2-Chloro-6-fluoro-phenyl)-2-(2-methyl-piperazin-1-yl)-quinazoline], the inhibition constant (Ki) stood at 26.3 nM in experiment [1] and 265 nM in experiment [2].
For `C[C@@H]1CNCCN1c1nc(-c2c(F)cccc2F)c2ccccc2n1` [Example 86, R-4-(2,6-Difluoro-phenyl)-2-(2-methyl-piperazin-1-yl)-quinazoline], in that order: 14.4 nM and 88.6 nM.
Consider `C[C@@H]1CNCCN1c1nc(-c2cccc(F)c2F)c2ccccc2n1` [Example 87, R-4-(2,3-Difluoro-phenyl)-2-(2-methyl-piperazin-1-yl)-quinazoline], for which the Ki was found to be 20 nM in experiment [1] and 99.1 nM in experiment [2].
On to `C[C@H]1CNCCN1c1nc(-c2cccc(F)c2F)c2ccccc2n1` [Example 88, S-4-(2,3-Difluoro-phenyl)-2-(2-methyl-piperazin-1-yl)-quinazoline], for which the values for the Ki in experiment [1] and in experiment [2] were 18.9 nM and 69.3 nM, respectively.
Regarding `Clc1ccc2c(-c3ccccc3)nc(N3CCNCC3)nc2c1` [Example 89, 7-Chloro-4-phenyl-2-piperazin-1-yl-quinazoline], the Ki turned out to be 49 nM in experiment [1] and 110 nM in experiment [2].
Take `COc1cccc(-c2nc(N3CCNCC3)nc3ccccc23)c1` [Example 90, 4-(3-methoxy-phenyl)-2-piperazin-1-yl-quinazoline]: the Ki in experiment [1] was determined as 14.6 nM; in experiment [2], 152 nM.
For `Brc1ccc2nc(N3CCNCC3)nc(-c3ccccc3)c2c1` [Example 91, 6-Bromo-4-phenyl-2-piperazin-1-yl-quinazoline], in that order: 211 nM and 31.4 nM.
Consider `Fc1ccc2nc(N3CCNCC3)nc(-c3ccccc3)c2c1` [Example 92, 6-Fluoro-4-phenyl-2-piperazin-1-yl-quinazoline], for which the Ki in experiment [1] came out at 33.8 nM; in experiment [2], 53 nM.
For `N[C@@H]1CCN(c2nc(-c3c(F)cccc3F)c3ccc(F)cc3n2)C1` [Example 93, R-1-[4-(2,6-Difluoro-phenyl)-7-fluoro-quinazolin-2-yl]-pyrrolidin-3-ylamine], in that order: 21.9 nM and 50.6 nM.
For the molecule `N[C@H]1CCN(c2nc(-c3c(F)cccc3F)c3ccc(F)cc3n2)C1` [Example 94, S-1-[4-(2,6-Difluoro-phenyl)-7-fluoro-quinazolin-2-yl]-pyrrolidin-3-ylamine], the Ki in experiment [1] is 23.7 nM; in experiment [2], 15.7 nM.
`N[C@@H]1CCN(c2nc(-c3c(F)cccc3F)c3ccccc3n2)C1` [Example 95, R-1-[4-(2,6-Difluoro-phenyl)-quinazolin-2-yl]-pyrrolidin-3-ylamine]: the values for the Ki in experiment [1] and in experiment [2] were 76.9 nM and 322 nM, respectively.
For `N[C@H]1CCN(c2nc(-c3c(F)cccc3F)c3ccccc3n2)C1` [Example 96, S-1-[4-(2,6-Difluoro-phenyl)-quinazolin-2-yl]-pyrrolidin-3-ylamine], in that order: 12.2 nM and 70.8 nM.
For `Fc1ccc2c(-c3ccccc3)nc(N3CCNCC3)nc2c1` [Example 97, 7-Fluoro-4-phenyl-2-piperazin-1-yl-quinazoline], in that order: 13.8 nM and 49.6 nM.
For `Fc1ccc2c(-c3c(F)cccc3F)nc(N3CCNCC3)nc2c1` [Example 98, 4-(2,6-Difluoro-phenyl)-7-fluoro-2-piperazin-1-yl-quinazoline], in that order: 20 nM and 32 nM.
As for `Fc1cccc(F)c1-c1nc(N[C@@H]2CCNC2)nc2ccccc12` [Example 99, R-[4-(2,6-Difluoro-phenyl)-quinazolin-2-yl]-pyrrolidin-3-yl-amine], the Ki amounted to 45.7 nM in experiment [1] and 2900 nM in experiment [2].
As to `Fc1ccc2c(-c3c(F)cccc3F)nc(N[C@H]3CCNC3)nc2c1` [Example 100, S-[4-(2,6-Difluoro-phenyl)-7-fluoro-quinazolin-2-yl]-pyrrolidin-3-yl-amine], the figures for the Ki in experiment [1] and in experiment [2] were 29.3 nM and 649 nM, respectively.
Regarding `Fc1cccc(F)c1-c1nc(N[C@H]2CCNC2)nc2ccccc12` [Example 101, S-[4-(2,6-Difluoro-phenyl)-quinazolin-2-yl]-pyrrolidin-3-yl-amine], the results for the Ki in experiment [1] and in experiment [2] were 7.5 nM and 4870 nM, respectively.
For `N[C@@H]1CCN(c2nc(-c3cccc(F)c3F)c3ccccc3n2)C1` [Example 102, R-1-[4-(2,3-Difluoro-phenyl)-quinazolin-2-yl]-pyrrolidin-3-ylamine], in that order: 11.4 nM and 155 nM.
Turning to `CN1CCN(c2nc(-c3ccc(F)c(F)c3)c3ccccc3n2)CC1` [Example 103, 4-(3,4-Difluoro-phenyl)-2-(4-methyl-piperazin-1-yl)-quinazoline], in experiment [2], the Ki turned out to be 645 nM.
Consider `C[C@@H]1CNCCN1c1nc(-c2c(F)cccc2F)c2ccc(F)cc2n1` [Example 104, R-4-(2,6-Difluoro-phenyl)-7-fluoro-2-(2-methyl-piperazin-1-yl)-quinazoline], for which the Ki in experiment [1] turned out to be 36.4 nM; in experiment [2] it was 27.6 nM.
For `C[C@@H]1CNCCN1c1nc(-c2ccccc2)c2ccc(F)cc2n1` [Example 105, R-7-Fluoro-2-(2-methyl-piperazin-1-yl)-4-phenyl-quinazoline], in that order: 16.6 nM and 65 nM.
For `C[C@H]1CNCCN1c1nc(-c2ccccc2)c2ccc(F)cc2n1` [Example 106, S-′7-Fluoro-2-(2-methyl-piperazin-1-yl)-4-phenyl-quinazoline], in that order: 18.3 nM and 49.7 nM.
As for `C[C@H]1CNCCN1c1nc(-c2c(F)cccc2F)c2ccc(F)cc2n1` [Example 107, S-4-(2,6-Difluoro-phenyl)-7-fluoro-2-(2-methyl-piperazin-1-yl)-quinazoline], the Ki came to 47.3 nM in experiment [1] and 30.8 nM in experiment [2].
For `Fc1ccc(-c2nc(N3CCNCC3)nc3ccccc23)cc1F` [Example 108, 4-(3,4-difluoro-phenyl)-2-piperazin-1-yl-quinazoline], in that order: 7.7 nM and 77.7 nM.
For `N[C@H]1CCN(c2nc(-c3cccc(F)c3F)c3ccc(F)cc3n2)C1` [Example 109, S-1-[4-(2,3-Difluoro-phenyl)-7-fluoro-quinazolin-2-yl]-pyrrolidin-3-yl-amine], in that order: 13.9 nM and 30.4 nM.
For `N[C@@H]1CCN(c2nc(-c3cccc(F)c3F)c3ccc(F)cc3n2)C1` [Example 110, R-1-[4-(2,3-Difluoro-phenyl)-7-fluoro-quinazolin-2-yl]-pyrrolidin-3-yl-amine], in that order: 13.6 nM and 57.1 nM.
Regarding `Fc1ccc2c(-c3cccc(F)c3F)nc(N3CCNCC3)nc2c1` [Example 111, 4-(2,3-Difluoro-phenyl)-7-fluoro-2-piperazin-1-yl-quinazoline], the Ki in experiment [1] came out at 18.6 nM; in experiment [2] it was 37.1 nM.
For `CN1CCN(c2nc(-c3ccc(F)c(F)c3)c3ccc(F)cc3n2)CC1` [Example 112, 4-(3,4-Difluoro-phenyl)-7-fluoro-2-(4-methyl-piperazin-1-yl)-quinazoline], in that order: 707 nM and 204 nM.
In the case of `CN1CCN(c2nc(-c3ccc(F)c(F)c3)c3ccccc3n2)CC1` [Example 114, 4-(3,4-Difluoro-phenyl)-2-(4-methyl-piperazin-1-yl)-quinazoline], in experiment [2], the affinity, expressed as Ki, was 1090 nM.
